Experimental data as given in patent EP4186382A1, “MESH MATERIALS FOR CONTROLLED RELEASE OF ANTIVIRALS, METHOD AND USE” (Universidade Federal de Minas Gerais, priority 2020, dated 2022).
Values joined by “and” are separate entries in the source; they are usually repeats but may differ in a detail not shown here. Equal values may be shown once. Read-outs that look alike come from different tables or passages of the source.

Legend:
[1] = test system: Coronavirus (MHV-3 Strain); type: cell-based, Coronavirus MHV-3 Strain genus Betacoronavirus
[2] = Solubility in water when preparing calibration standards; type: physicochemical
Method: The calibration curve used the following standards: Standard #1 - 99.5% chlorhexidine (CAS 55-56-1) from Sigma-Aldrich, Standard #2 - 20% solution of chlorhexidine digluconate in solution (CAS 18472-51-0). Samples with both standards were prepared in deionized water. […] With Standard #2 it was possible to obtain a good reproducibility of the areas; therefore, it was decided to perform the calibration curve with standard #2.

Which “time after which activity was lost” value ([1]; concentration of 5%) does the source give for N=C(NCCCCCCNC(=N)NC(=N)Nc1ccc(Cl)cc1)NC(=N)Nc1ccc(Cl)cc1 [5% Chlorhexidine, 1,1'-hexamethylene-bis(5-(p-chlorophenyl)-biguanide)] here?
The value was no more than 10 min.

And the “Infectivity Reduction (Virus Titer 10^8/mL)” value (from here on “Infectivity Reduction”) ([1]; contact time 1 minute)?
The value was 10^4.

And the “Coronavirus (MHV-3 Strain) inactivation” value ([1]; contact time 1 minute, listed as Chlorhexidine 5.0%)?
The value was 99.99%.

And the “Infectivity Reduction” value ([1]; contact time 5 minutes)?
The value was 10^4.

What about the “Coronavirus (MHV-3 Strain) inactivation” value ([1]; contact time 5 minutes, listed as Chlorhexidine 5.0%) of the same compound?
The value was 99.99%.

What about the “Coronavirus (MHV-3 Strain) inactivation” value ([1]; contact time 10 minutes) of the same compound?
The value was 99.9% and 99.99%.

And the “Infectivity Reduction” value ([1]; contact time 10 minutes)?
Its value is 10^5.

What about the “Coronavirus (MHV-3 Strain) inactivation” value ([1]; contact time 10 minutes, listed as Chlorhexidine 5.0%) of the same compound?
The value was 99.9%.

What about the “Coronavirus (MHV-3 Strain) inactivation” value ([1]; contact time 1 hour) of the same compound?
The value was “Not effective”.

What about the “Coronavirus (MHV-3 Strain) inactivation” value ([1]; contact time 4 hours) of the same compound?
Its value is “Not effective”.

And the “Coronavirus (MHV-3 Strain) inactivation” value ([1]; contact time Immediate)?
The value was “Not Effective”.

For [H]/N=C(\N/C(=N/[H])NCCCCCCNC(=N)NC(=N)Nc1ccc(Cl)cc1)Nc1ccc(Cl)cc1 [Chlorhexidine, 1,1'-hexamethylene-bis(5-(p-chlorophenyl)-biguanide)], which solubility in water [2] is on record?
The solubility in water was “very low solubility in water”.

Which solubility in water ([2]; deionized water) does the source give for N=C(NCCCCCCNC(=N)NC(=N)Nc1ccc(Cl)cc1)NC(=N)Nc1ccc(Cl)cc1.O=C(O)[C@H](O)[C@@H](O)[C@H](O)[C@H](O)CO.O=C(O)[C@H](O)[C@@H](O)[C@H](O)[C@H](O)CO [chlorhexidine digluconate] here?
The solubility in water was “no solubility problems”.
